Results taken from paper PMC8778133 (Pharmaceutics, 2021).
In brackets after ≈: the same amount, converted by molar mass. Several values for one entry are separate records, joined by “and”; a condition that tells them apart may be missing. Equal entries are not always repeated. Where two headings read alike, the source gives them in different places.

Columns and labels:
[1] = pH of saturated Norfloxacin solutions in dissolution media (pHx=0 effect test); type: physicochemical; conditions: for pH of saturated solution after 24 h: agitation
Experimental: However, instead of adding a Norfloxacin tablet, the powder was directly weighted into the vials until saturated solutions of Norfloxacin were obtained. Then, the solutions were allowed to stand under agitation at 25 °C for 24 h. After this, the pH of the solutions was measured again. […] This effect is more evident for the API dissolution than for the cocrystal because the amount of API released in the cocrystal is lower compared to the pure API.

[2] = pKa determination by potentiometric titration; type: physicochemical; conditions: for pKa: 0.15 M KCl aqueous solution
Experimental: The sample was pre-alkalinized to pH 12 with 0.5 M standardized KOH. Then, it was titrated with standardized 0.5 M HCl. All titrations were carried out at 0.15 M ionic strength and a temperature of 25 °C, under a nitrogen atmosphere. […] The Debye–Hückel equation was used to obtain the thermodynamic pKa values.

[3] = Solubility by the shake-flask method; type: physicochemical; conditions: for solubility at 24 h: universal buffer
Experimental: A universal buffer composed of 75 mM trifluoroacetic acid, 25 mM acetic acid, and 25 mM ethylenediamine, adjusted with 1M sodium hydroxide up to pH 7.5, was used (ionic strength, I = 0.1 M). Samples were prepared by adding a weighted amount of solid (enough to obtain saturated solutions) to 2 mL of the buffered solution. After this, solutions were shaken at a controlled temperature (25.0 ± 0.2 °C) for 24 h, but, after 4 h of agitation, the pH was checked and, if necessary, readjusted to the initial value with small amounts of 1 M hydrochloric acid or 1 M sodium hydroxide solution. After the 24 h stirring, samples were left to stand for equilibration for 24 more hours [32, 33, 34]. The pH was measured and phases separated by centrifugation in a Rotanta 460RS centrifuge from Hettich Lab Technology (Tuttlingen, Germany), at a controlled temperature (25 °C) and 3500 rpm for 30 min.
The remaining solid was dried under vacuum for 30 min and stored at 4 °C until XRPD analysis. […] A Shimadzu (Kyoto, Japan) liquid chromatograph, equipped with two LC-10AD pumps and a SPD-10AV detector, was used. Temperature was controlled at 25.0 ± 0.1 °C with a CTO-10AS column oven. The column was a Symmetry C18, with 5 μm particle size and dimensions of 4.6 × 150 mm from Waters (Milford, MA, USA). Mobile phase was composed of 20 mM phosphate buffer at pH 7 (A) and acetonitrile (B). Elution was in gradient mode (time (min), %B: 0,3; 1,3; 5,25; 10,25; 12,3; 15,3). […] To quantify, six standard solutions were prepared in the linear range (5–60 mgL^−1 for both compounds). Standards were dissolved in an acetonitrile/water mixture at a proportion of 25/75 (v/v). In a first attempt, saturated supernatants were injected directly, and, when necessary, they were appropriately diluted in water to ensure that they fit within the range of calibration.

[4] = Intrinsic dissolution rate, small-scale dissolution assay at single GIT pH values; type: physicochemical; conditions: for % Dissolved at t = 30 min / Dissolution Rate: SD in brackets; for Dissolution Rate: fitting of Equation (1), kdS
Experimental: Dissolution tests were performed with a small-scale dissolution assay installed in the GlpKaTM titrator. […] Then, 1.5 mL of 0.125 M acetate-phosphate buffer at pH 1.6 was introduced into the vial without wetting the tablet surface. […] The final volume was 15 mL. UV-visible absorption spectra were recorded every 30 s with a fiber-optic probe immersed in the solution. […] Spectral regions where the signal was saturated (A > 1.5) were discarded. Dissolution rate was obtained through the fitting of the first-order Noyes-Whitney exponential equation to the data:(1) [[…]0)) In this equation, [X]t is the weight (g) of compound in solution at a given time (min); […] Dissolution rate is calculated through a refinement process in which S, kd and t0 optimal values are obtained by minimizing the root mean square deviation between the modeled concentrations and the measured ones.

[5] = design: method as in doi:10.1016/0378-5173(90)90130-V, PMID 16307530; conditions: cited from earlier work
[6] = 4-sector pH dissolution test (pH stepped from 2.0 to 7.4); type: physicochemical; conditions: 4-sector test
Experimental: To perform the 4-sector dissolution rate determinations, the same procedure was followed, but, after adjusting the initial pH to 2.0 and monitoring dissolution for 30 min at this pH, the pH was automatically raised to the next value by addition of KOH. Then, dissolution was monitored again for 30 more minutes. This stepping procedure was repeated until dissolution in the four sectors was covered.

[7] = water, 25 °C and 0 ionic strength, potentiometry, given as ref 37 (authors' unpublished work), read-out: pKa (first)

Structure (SMILES)	pKa [2, 7]	Final Solid Form ([4]; after dissolution at pH 2.0)	Final Solid Form ([4]; after dissolution at pH 4.0)	Final Solid Form ([4]; after dissolution at pH 5.5)	Final Solid Form ([4]; after dissolution at pH 7.4)	% Dissolved at t = 30 min ([4]; pH 2.0)	Dissolution Rate ([4]; pH 2.0)	% Dissolved at t = 30 min ([4]; pH 4.0)	Dissolution Rate ([4]; pH 4.0)	% Dissolved at t = 30 min ([4]; pH 5.5)	Dissolution Rate ([4]; pH 5.5)	% Dissolved at t = 30 min ([4]; pH 7.4)	Dissolution Rate ([4]; pH 7.4)	further results
CCn1cc(C(=O)O)c(=O)c2cc(F)c(N3CCNCC3)cc21 [Norfloxacin]	6.35 ± 0.04	Tetrahydrate	Tetrahydrate	Tetrahydrate	Tetrahydrate	100% and 101.2 (6.3) %	4.16 (0.73) μg min^−1	71% and 71.3 (6.9) %	0.79 (0.03) μg min^−1	23% and 23.0 (5.2) %	0.19 (0.02) μg min^−1	9.4 (1.0) %	0.06 (0.01) μg min^−1	pH of saturated solution after 24 h ([1]; dissolution medium initially at pH 4.0, 25 °C): 5.8; pH of saturated solution after 24 h ([1]; dissolution medium initially at pH 5.5, 25 °C): 6.2; pH of saturated solution after 24 h ([1]; dissolution medium initially at pH 7.4, 25 °C): 7.4; positive pH increment ([1]; initial pH 4.0): 1.8 units; positive pH increment ([1]; initial pH 5.5): 0.7 units; positive pH increment ([1]; initial pH 7.4): 0 units; percentage of compound in the zwitterionic form ([2]; pH 5.5, species distribution (Figure S12)): around 12%; maximum percentage of the zwitterionic form ([2]; pH 7.5, species distribution from pKa values (Figure S12)): around 90%; pKa (second) ([2]; water, 25 °C and 0 ionic strength, potentiometry, given as ref 37 (authors' unpublished work)): 8.80 ± 0.04; solid phase obtained after the shake-flask experiments (XRPD) ([3]; aqueous buffer, 24 h stirring + 24 h standing, 25 °C): tetrahydrate; intrinsic solubility of the zwitterionic form (S0) ([3]; calculated from shake-flask solubility and Equation (7), pKa' at I = 0.1 M, corresponds to tetrahydrate form): 319 ± 19 µg/mL; solubility at 24 h ([3]; pH 7.25, shake-flask, 25 °C, I = 0.1 M, final pH 7.25, n = 3, solid transformed to tetrahydrate, read-out: solubility): 394 ± 18 µg/mL (≈ 1230 µM); solubility at 24 h ([3]; pH 7.5, calculated from shake-flask solubility and Equation (7), pKa' at I = 0.1 M, corresponds to tetrahydrate form, read-out: intrinsic solubility of the zwitterionic form (S0)): 320 ± 20 µg/mL (≈ 1000 µM); % Dissolved at t = 30 min ([4]; pH 2.0, listed as API): complete; % Dissolved at t = 30 min ([4]; pH 7.4, listed as API): 7%; oral bioavailability [5]: ~ 40%
CCn1cc(C(=O)O)c(=O)c2cc(F)c(N3CCNCC3)cc21.Oc1cccc(O)c1 [Norfloxacin–resorcinol cocrystal]	–	Monohydrate	Monohydrate	Monohydrate	Monohydrate	94.4 (1.1) %	2.53 (1.63) μg min^−1	91.2 (0.9) %	0.70 (0.15) μg min^−1	48.0 (12.5) %	0.33 (0.04) μg min^−1	9.6 (1.0) %	0.19 (0.10) μg min^−1	percentage of the API remaining in the solution ([6]; after pH increased to 7.4 (sudden precipitation)): 80%; percentage of Norfloxacin in the solution ([6]; from pH 2.0 to pH 5.5, 30 min at each pH): ~90%; dissolution in the first sector ([6]; pH 2.0, 30 min): almost complete dissolution; % Dissolved at t = 30 min ([4]; pH 5.5, listed as cocrystal): 48%; % Dissolved at t = 30 min ([4]; pH 7.4, listed as cocrystal): 7%
Oc1cccc(O)c1 [Resorcinol, resorcinol]	9.47 ± 0.02	–	–	–	–	–	–	–	–	–	–	–	–	pKa ([2]; water, 25 °C and 0 ionic strength, potentiometry, given as ref 37 (authors' unpublished work), read-out: pKa (second)): 11.6 ± 0.04
